No end group written: not given here.
Experiments:
[1] = tested on: P3x63Ag8 mouse myeloma cells; assay: Invasion of P3x63Ag8 myeloma cells through FN-coated filters; assay type: cell-based; details: 16 hr
Experimental: (§1) FIG. 7A-B. S1ED^214-236, specific for VEGFR2 coupling to VLA-4, blocks myeloma cell invasion but not adhesion. (FIG. 7A) P3x63Ag8 mouse myeloma cells are plating on the VLA-4 ligand FN in the presence or absence of 30 uM S1ED^210-233 (SEQ ID No: 4) or S1ED^214-236 (SEQ ID No: 7) for 2.5 hr. (FIG. 7B) P3x63Ag8 myeloma cells are plated on FN-coated filters in the presence of HPSE inhibitor OGT2115, VLA-4 blocking antibody P1H4, VEGFR2 inhibitor Vandetanib or S1ED^210-233 or S1ED^214-236 and allowed to migrate through the filter for 16 hr. Small black dots are the pores in the filter.
The bottom chambers of Transwell filter chambers (8 μm pores; Corning) were coated with 40 μg/ml of FN. Cells (5×10^5 in 0.2 ml plating medium) were placed in the upper chamber and incubated for 16 hr at 37° C. in the CO2 incubator. After incubation, cells in the upper chamber were removed and cells on the bottom side of the filter were fixed in 4% paraformaldehyde (PFA) and stained with 0.1% Crystal Violet before imaging. Cells from at least five random fields were counted.

[2] = tested on: P3x63Ag8 mouse myeloma cells; assay: Adhesion of P3x63Ag8 myeloma cells to FN; assay type: cell-based; details: 30 uM peptide, 2.5 hr
Experimental: as §1
Nitrocellulose-coated slides were coated for 2 hr at 37° C. with 40 μg/ml FN (kindly provided by Dr. Donna Peters, University of Wisconsin-Madison) or 5 μg/ml recombinant VCAM-1/Fc chimera (R&D Systems) in calcium and magnesium-free PBS (CMF-PBS; 135 mM NaCl, 2.7 mM KCl, 10.2 mM Na2HPO4-7H20 and 1.75 mM KH2PO4, pH7.4). Slides were blocked for 1 hr at 37° C. with RPMI 1640 containing 1% heat-denatured BSA (plating medium). Cells in plating medium were allowed to attach and spread for 2.5 hr at 37° C. Slides were fixed in 4% EM grade paraformaldehyde (Electron Microscopy Sciences) in CMF-PBS and labeled for 30 min in 0.13 μM rhodamine phalloidin (Invitrogen) in CMF-PBS. Coverslips were mounted in non-fluorescing mounting medium (Immumount; Thermo Shandon) and allowed to dry. […]

VEGFR2 and VLA-4 = target: T1, VEGFR2 and VLA-4 (Homo sapiens, UniProt P05556+P13612+P35968); assay: Activation / inhibition of Sdc1-mediated coupling of VEGFR2 to VLA-4 (FIGS. 6A-H); assay type: cell-based
T1 construct: the α4-integrin (VLA-4), which is expressed on myeloma cells; endogenous in cells; host or cells: CAG human myeloma cells (HPSE^low / HPSE^high) plated on fibronectin
T1 sequence (P35968 20-1356): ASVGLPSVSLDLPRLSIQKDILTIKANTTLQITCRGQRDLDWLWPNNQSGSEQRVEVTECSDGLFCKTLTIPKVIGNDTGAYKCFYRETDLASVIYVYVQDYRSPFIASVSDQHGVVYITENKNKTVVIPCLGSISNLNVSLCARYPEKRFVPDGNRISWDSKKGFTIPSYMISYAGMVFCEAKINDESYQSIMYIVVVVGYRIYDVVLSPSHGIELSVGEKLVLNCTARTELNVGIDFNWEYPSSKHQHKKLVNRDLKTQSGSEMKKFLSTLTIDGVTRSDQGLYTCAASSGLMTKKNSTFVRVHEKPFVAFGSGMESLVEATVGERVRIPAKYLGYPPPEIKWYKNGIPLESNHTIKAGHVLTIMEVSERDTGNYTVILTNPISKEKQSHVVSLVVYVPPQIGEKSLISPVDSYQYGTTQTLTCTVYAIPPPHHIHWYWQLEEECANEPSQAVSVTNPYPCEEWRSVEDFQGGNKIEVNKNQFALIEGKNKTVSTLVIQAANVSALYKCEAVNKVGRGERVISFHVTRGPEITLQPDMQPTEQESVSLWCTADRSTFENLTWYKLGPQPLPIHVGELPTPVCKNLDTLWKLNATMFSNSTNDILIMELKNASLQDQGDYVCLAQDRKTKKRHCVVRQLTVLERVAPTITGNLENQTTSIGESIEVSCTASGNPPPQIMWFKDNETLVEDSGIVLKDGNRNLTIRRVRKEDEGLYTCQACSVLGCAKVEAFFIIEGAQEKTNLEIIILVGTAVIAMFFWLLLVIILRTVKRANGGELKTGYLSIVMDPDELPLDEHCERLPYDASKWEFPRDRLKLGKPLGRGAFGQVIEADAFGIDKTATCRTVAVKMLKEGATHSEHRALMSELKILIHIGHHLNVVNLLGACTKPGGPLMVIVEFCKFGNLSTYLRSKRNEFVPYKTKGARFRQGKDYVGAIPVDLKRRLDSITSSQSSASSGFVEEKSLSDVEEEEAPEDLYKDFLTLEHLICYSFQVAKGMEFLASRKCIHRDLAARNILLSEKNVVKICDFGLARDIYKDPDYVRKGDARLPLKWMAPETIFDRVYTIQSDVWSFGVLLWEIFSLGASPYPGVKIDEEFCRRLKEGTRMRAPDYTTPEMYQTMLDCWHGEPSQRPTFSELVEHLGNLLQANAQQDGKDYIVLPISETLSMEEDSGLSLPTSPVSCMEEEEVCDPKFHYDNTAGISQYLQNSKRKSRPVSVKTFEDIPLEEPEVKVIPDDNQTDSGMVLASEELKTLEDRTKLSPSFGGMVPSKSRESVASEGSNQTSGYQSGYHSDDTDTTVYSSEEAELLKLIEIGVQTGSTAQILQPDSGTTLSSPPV
T1 sequence (P13612 34-1032): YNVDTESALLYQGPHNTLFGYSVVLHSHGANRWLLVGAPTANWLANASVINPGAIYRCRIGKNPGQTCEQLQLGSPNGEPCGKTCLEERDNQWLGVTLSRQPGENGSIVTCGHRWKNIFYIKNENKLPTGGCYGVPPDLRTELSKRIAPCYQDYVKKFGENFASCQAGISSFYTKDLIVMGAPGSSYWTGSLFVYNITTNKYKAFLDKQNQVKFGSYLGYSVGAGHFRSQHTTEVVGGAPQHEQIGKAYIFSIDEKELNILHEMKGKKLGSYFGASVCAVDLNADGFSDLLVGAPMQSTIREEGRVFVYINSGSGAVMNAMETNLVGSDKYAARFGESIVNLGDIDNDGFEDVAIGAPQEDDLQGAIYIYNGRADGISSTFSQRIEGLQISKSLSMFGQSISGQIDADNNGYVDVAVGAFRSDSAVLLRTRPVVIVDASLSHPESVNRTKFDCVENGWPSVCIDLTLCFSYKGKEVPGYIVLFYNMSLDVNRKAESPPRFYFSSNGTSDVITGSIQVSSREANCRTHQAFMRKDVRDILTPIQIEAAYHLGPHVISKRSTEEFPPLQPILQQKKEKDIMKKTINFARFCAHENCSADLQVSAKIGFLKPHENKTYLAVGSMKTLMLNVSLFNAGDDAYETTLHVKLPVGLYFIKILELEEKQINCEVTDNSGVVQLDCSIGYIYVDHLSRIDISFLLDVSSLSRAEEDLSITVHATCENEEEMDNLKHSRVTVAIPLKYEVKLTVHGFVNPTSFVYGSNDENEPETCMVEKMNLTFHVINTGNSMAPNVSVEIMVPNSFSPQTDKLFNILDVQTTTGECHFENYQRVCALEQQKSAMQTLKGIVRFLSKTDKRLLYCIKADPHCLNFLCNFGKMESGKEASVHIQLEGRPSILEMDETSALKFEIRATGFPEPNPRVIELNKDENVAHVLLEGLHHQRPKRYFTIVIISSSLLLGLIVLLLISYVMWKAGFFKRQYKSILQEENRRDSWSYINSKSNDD
T1 sequence (P05556 21-798): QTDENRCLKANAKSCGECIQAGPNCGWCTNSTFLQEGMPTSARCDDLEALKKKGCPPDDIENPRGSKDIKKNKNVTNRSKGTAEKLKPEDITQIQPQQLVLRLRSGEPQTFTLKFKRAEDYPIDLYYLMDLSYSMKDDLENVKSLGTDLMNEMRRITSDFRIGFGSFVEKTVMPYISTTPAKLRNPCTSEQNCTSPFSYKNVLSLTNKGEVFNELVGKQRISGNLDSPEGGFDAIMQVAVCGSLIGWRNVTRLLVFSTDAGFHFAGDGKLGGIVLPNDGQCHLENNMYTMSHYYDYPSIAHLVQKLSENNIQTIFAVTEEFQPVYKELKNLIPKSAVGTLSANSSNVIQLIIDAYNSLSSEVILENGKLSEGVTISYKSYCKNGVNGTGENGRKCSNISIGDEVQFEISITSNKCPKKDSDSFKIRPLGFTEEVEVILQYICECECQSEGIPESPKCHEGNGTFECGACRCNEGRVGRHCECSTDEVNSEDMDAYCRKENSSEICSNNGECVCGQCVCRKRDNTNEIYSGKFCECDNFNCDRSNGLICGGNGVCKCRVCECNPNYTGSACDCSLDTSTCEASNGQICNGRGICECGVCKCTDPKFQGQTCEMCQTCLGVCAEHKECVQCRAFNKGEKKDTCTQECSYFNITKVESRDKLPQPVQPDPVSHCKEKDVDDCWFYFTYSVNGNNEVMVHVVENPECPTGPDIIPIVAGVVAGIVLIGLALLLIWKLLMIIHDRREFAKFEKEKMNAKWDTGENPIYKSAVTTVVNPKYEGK
Experimental: (§2) FIGS. 6A-G. Peptides derived from the active site in Sdc1 activate or inhibit adhesion and invasion. (FIG. 6A) Transwell migration assays towards FN (for 16 hrs) were performed for HPSE low or high cells in the presence of 0, 0.3, 3, and 30 μM of S1ED^210-240. Cells migrating to the bottom side of the filter were counted from five random images for each treatment. (FIG. 6B) The sequence of S1ED210-240 is shown (SEQ ID NO: 3), as well as […] truncation mutants of the peptide (SEQ ID NOs: 5, 2, 4 and 7). Amino acids shown in red appear necessary for the spreading and invasive activity. (FIG. 6C) Images of HPSE^low and HPSE^high cells plated on FN for 2 hr. (FIG. 6D) HPSE^low cells were treated with 0, 0.3, 3, 10 and 30 μM of S1ED^210-236, S1ED^210-233, or S1ED^214-240, plated on FN for 2 hr, fixed and stained with fluorescent phalloidin. Cells from five random images were quantified for cell attachment and cell spreading. (FIG. 6E) HPSE^high cells were treated with 0, 3, 10, and 30 μM of S1ED^210-236, S1ED^210-233, and S1ED^214-240, plated on FN for 2 hr, then fixed, imaged and quantified as in FIG. 6D. (FIG. 6F) Transwell migration assays towards FN (for 16 hr) were performed for HPSE^low or HPSE^high cells in the presence of 30 μM of S1ED^210-236, S1ED^210-233, S1ED^214-240 and Vandetanib. (FIG. 6G) HPSE^low cell lysates were incubated overnight with glutathione beads coated with GST or GST-S1ED in the absence or presence of 30 μM of S1ED^210-236, S1ED^210-233, and S1ED^214-240. Capture of VLA-4 or VEGFR2 was detected by immunoblotting. Sequences in FIG. 6B are 210-240 (SEQ ID NO: 3), 210-236 (SEQ ID NO: 2), 210-233 (SEQ ID NO: 4), 214-240 (SEQ ID NO: 5) and 214-236 (SEQ ID NO: 7).
It is envisioned that a peptide that contains binding sites for both VEGFR2 and VLA-4, such as 210-236, has the capacity to bridge both receptors and link them together. This activates signaling that the cells use for migration and invasion. […]

VLA-4 = target: T2, VLA-4 (Homo sapiens, UniProt P05556+P13612); assay: GST pull down assay: capture of VLA-4 by GST-S1ED; assay type: binding; details: HPSE^low cell lysates; peptide 30 M [sic]
T2 construct: the α4-integrin (VLA-4), which is expressed on myeloma cells; endogenous in cells; host or cells: CAG human myeloma cells (HPSE^low), whole-cell lysate
T2 sequence (P13612 34-1032): as the sequence (P13612 34-1032) above
T2 sequence (P05556 21-798): as the sequence (P05556 21-798) above
Experimental: as §2
CAG cells were washed with CMF-PBS and then lysed for 20 min on ice in lysis buffer. Cell debris was removed by centrifugation at 13000 rpm for 20 min at 4° C. Whole cell lysates were then incubated at 4° C. overnight with either 3 μM GST or 3 μM GST-S1ED in the absence or presence of 1 μM, 3 μM, and 10 μM S1ED^210-240 peptide. GST or GST-S1ED was captured by addition of glutathione Sepharose and the beads were washed with ice-cold lysis buffer and CMF-PBS, prior to addition of SDS-PAGE sample buffer and analyszed by electrophoresis and western blotting as described previously.

EC50 (VEGFR2 and VLA-4; FIGS. 6A-H, read-out: EC50 of bridging VEGFR2 and VLA-4, activating signaling used for migration and invasion) [µM]	IC50 (VEGFR2 and VLA-4; read-out: IC50 as inhibitor of the VLA-4/VEGFR2 coupling mechanism) [µM]	Substance	invasion / migration of P3X cells through FN-coated filters [1]	adhesion of P3X cells to FN [2]	competition for capture of VLA-4 by GST-S1ED (VLA-4)
–	–	S1ED^210-233: syndecan-1 ectodomain peptide, residues 210-233 (SEQ ID NO: 4) (DFTFETSGENTAVVAVEPDRRNQS)	blocked by either peptide	blocks the adhesion of the myeloma cells to FN	–
0.3	10	DFTFETSGENTAVVAVEPDRRNQSPVD [S1ED^210-236]	–	–	effectively blocks capture of both receptors
